Reference: ChEMBL document CHEMBL3885881, “DrugMatrix”

Species on record: Rattus norvegicus
Assay: DrugMatrix - Regimen: Daily Repeat
Format: toxicity, organism-based, Sprague-Dawley
Parameters: regimen Daily Repeat, gender Male, age 6-8 weeks
Details: in vivo, po, route oral GAVAGE, vehicle 100 % WATER; for ABSOLUTE BASOPHIL / ABSOLUTE EOSINOPHIL / ABSOLUTE LYMPHOCYTE / ABSOLUTE MONOCYTE / ABSOLUTE SEGMENTED NEUTROPHIL / BASOPHIL / EOSINOPHIL / ERYTHROCYTE COUNT / HEMATOCRIT / HEMOGLOBIN / LEUKOCYTE COUNT / LYMPHOCYTE / MEAN CORPUSCULAR HEMOGLOBIN / MEAN CORPUSCULAR HEMOGLOBIN CONCENTRATION / MEAN CORPUSCULAR VOLUME / MONOCYTE / NEUTROPHIL / NUCLEATED RED BLOOD CELLS / PLATELET COUNT: tissue Blood; for ALANINE AMINOTRANSFERASE / ALBUMIN / ALKALINE PHOSPHATASE / ASPARTATE AMINOTRANSFERASE / BLOOD UREA NITROGEN / CARBON DIOXIDE / CHLORIDE / CHOLESTEROL / CREATINE PHOSPHOKINASE / CREATININE / GLUCOSE / LACTATE DEHYDROGENASE / LIPASE / PHOSPHORUS / POTASSIUM / SODIUM / TOTAL BILIRUBIN / TOTAL PROTEIN / URIC ACID: tissue Plasma
[1] = 30 mg/kg, 120 h, dose level Low, time 5 day
[2] = 2000 mg/kg, 72 h, dose level High, time 3 day
[3] = 2000 mg/kg, 120 h, dose level High, time 5 day

SMILES: CC(C)NCC(O)c1ccc(NS(C)(=O)=O)cc1 (centres undefined) [SOTALOL]
- ABSOLUTE BASOPHIL [1]: 0 CELLS/uL
- ABSOLUTE EOSINOPHIL [1]: 80.67 CELLS/uL
- ABSOLUTE LYMPHOCYTE [1]: 11724 CELLS/uL
- ABSOLUTE MONOCYTE [1]: 98 CELLS/uL
- ABSOLUTE SEGMENTED NEUTROPHIL [1]: 997.33 CELLS/uL
- BASOPHIL [1]: 0%
- EOSINOPHIL [1]: 0.67%
- ERYTHROCYTE COUNT [1]: 5.34 x10E6/uL
- HEMATOCRIT [1]: 34.2%
- HEMOGLOBIN [1]: 13.43 G/DL
- LEUKOCYTE COUNT [1]: 12.9 x10E3/uL
- LYMPHOCYTE [1]: 90.67%
- MEAN CORPUSCULAR HEMOGLOBIN [1]: 25.17 pg
- MEAN CORPUSCULAR HEMOGLOBIN CONCENTRATION [1]: 39.27 G/DL
- MEAN CORPUSCULAR VOLUME [1]: 64 fL
- MONOCYTE [1]: 0.67%
- NEUTROPHIL [1]: 8%
- NUCLEATED RED BLOOD CELLS [1]: 0 /100WBC
- PLATELET COUNT [1]: 1232.33 x10E3/uL
- ALANINE AMINOTRANSFERASE [1]: 48 u/L
- ALBUMIN [1]: 4.27 G/DL
- ALKALINE PHOSPHATASE [1]: 355 u/L
- ASPARTATE AMINOTRANSFERASE [1]: 104.33 u/L
- BLOOD UREA NITROGEN [1]: 17 mg/dL
- CARBON DIOXIDE [1]: 28.33 mmol/L
- CHLORIDE [1]: 105 MEQ/L
- CHOLESTEROL [1]: 70.67 mg/dL
- CREATINE PHOSPHOKINASE [1]: 193.67 u/L
- CREATININE [1]: 0.2 mg/dL
- GLUCOSE [1]: 131.67 mg/dL
- LACTATE DEHYDROGENASE [1]: 156 u/L
- LIPASE [1]: 9.33 u/L
- PHOSPHORUS [1]: 11.6 mg/dL
- POTASSIUM [1]: 6.59 MEQ/L
- SODIUM [1]: 150.53 MEQ/L
- TOTAL BILIRUBIN [1]: 0.2 mg/dL
- TOTAL PROTEIN [1]: 6.13 G/DL
- URIC ACID [1]: 1.17 mg/dL
- ABSOLUTE BASOPHIL [2]: 0 CELLS/uL
- ABSOLUTE EOSINOPHIL [2]: 0 CELLS/uL
- ABSOLUTE LYMPHOCYTE [2]: 13259 CELLS/uL
- ABSOLUTE MONOCYTE [2]: 47.67 CELLS/uL
- ABSOLUTE SEGMENTED NEUTROPHIL [2]: 926.67 CELLS/uL
- BASOPHIL [2]: 0%
- EOSINOPHIL [2]: 0%
- ERYTHROCYTE COUNT [2]: 5.36 x10E6/uL
- HEMATOCRIT [2]: 33.57%
- HEMOGLOBIN [2]: 13.17 G/DL
- LEUKOCYTE COUNT [2]: 14.23 x10E3/uL
- LYMPHOCYTE [2]: 93%
- MEAN CORPUSCULAR HEMOGLOBIN [2]: 24.57 pg
- MEAN CORPUSCULAR HEMOGLOBIN CONCENTRATION [2]: 39.23 G/DL
- MEAN CORPUSCULAR VOLUME [2]: 62.73 fL
- MONOCYTE [2]: 0.33%
- NEUTROPHIL [2]: 6.67%
- NUCLEATED RED BLOOD CELLS [2]: 0 /100WBC
- PLATELET COUNT [2]: 1424.33 x10E3/uL
- ALANINE AMINOTRANSFERASE [2]: 61 u/L
- ALBUMIN [2]: 3.9 G/DL
- ALKALINE PHOSPHATASE [2]: 388.67 u/L
- ASPARTATE AMINOTRANSFERASE [2]: 106.33 u/L
- BLOOD UREA NITROGEN [2]: 14 mg/dL
- CARBON DIOXIDE [2]: 21.33 mmol/L
- CHLORIDE [2]: 104 MEQ/L
- CHOLESTEROL [2]: 57.67 mg/dL
- CREATINE PHOSPHOKINASE [2]: 412.33 u/L
- CREATININE [2]: 0.15 mg/dL
- GLUCOSE [2]: 148 mg/dL
- LACTATE DEHYDROGENASE [2]: 629 u/L
- LIPASE [2]: 10 u/L
- PHOSPHORUS [2]: 11.93 mg/dL
- POTASSIUM [2]: 7.54 MEQ/L
- SODIUM [2]: 142.93 MEQ/L
- TOTAL BILIRUBIN [2]: 0.2 mg/dL
- TOTAL PROTEIN [2]: 5.5 G/DL
- URIC ACID [2]: 1.8 mg/dL
- ABSOLUTE BASOPHIL [3]: 0 CELLS/uL
- ABSOLUTE EOSINOPHIL [3]: 0 CELLS/uL
- ABSOLUTE LYMPHOCYTE [3]: 13770.67 CELLS/uL
- ABSOLUTE MONOCYTE [3]: 100.67 CELLS/uL
- ABSOLUTE SEGMENTED NEUTROPHIL [3]: 1095.33 CELLS/uL
- BASOPHIL [3]: 0%
- EOSINOPHIL [3]: 0%
- ERYTHROCYTE COUNT [3]: 5.87 x10E6/uL
- HEMATOCRIT [3]: 36.53%
- HEMOGLOBIN [3]: 14.37 G/DL
- LEUKOCYTE COUNT [3]: 14.97 x10E3/uL
- LYMPHOCYTE [3]: 92%
- MEAN CORPUSCULAR HEMOGLOBIN [3]: 24.47 pg
- MEAN CORPUSCULAR HEMOGLOBIN CONCENTRATION [3]: 39.33 G/DL
- MEAN CORPUSCULAR VOLUME [3]: 62.27 fL
- MONOCYTE [3]: 0.67%
- NEUTROPHIL [3]: 7.33%
- NUCLEATED RED BLOOD CELLS [3]: 0.33 /100WBC
- PLATELET COUNT [3]: 1192.33 x10E3/uL
- ALANINE AMINOTRANSFERASE [3]: 54.33 u/L
- ALBUMIN [3]: 4.33 G/DL
- ALKALINE PHOSPHATASE [3]: 480.33 u/L
- ASPARTATE AMINOTRANSFERASE [3]: 83 u/L
- BLOOD UREA NITROGEN [3]: 16.33 mg/dL
- CARBON DIOXIDE [3]: 24.33 mmol/L
- CHLORIDE [3]: 106 MEQ/L
- CHOLESTEROL [3]: 77 mg/dL
- CREATINE PHOSPHOKINASE [3]: 259.33 u/L
- CREATININE [3]: 0.22 mg/dL
- GLUCOSE [3]: 159.33 mg/dL
- LACTATE DEHYDROGENASE [3]: 78.67 u/L
- LIPASE [3]: 10.33 u/L
- PHOSPHORUS [3]: 13.13 mg/dL
- POTASSIUM [3]: 6.86 MEQ/L
- SODIUM [3]: 148.2 MEQ/L
- TOTAL BILIRUBIN [3]: 0.2 mg/dL
- TOTAL PROTEIN [3]: 6.13 G/DL
- URIC ACID [3]: 1.73 mg/dL
